Laboratory results reported in patent US10343985B2, “Cryopyrin inhibitors for preventing and treating inflammation” (VIRGINIA COMMONWEALTH UNIVERSITY, priority 2013, dated 2019).
Read-outs that look alike come from different tables or passages of the source.

Experiments:
[1] = molecular target: T1, NLRP3 inflammasome (Mus musculus, UniProt Q8R4B8); test: Caspase-1 enzymatic activity in HL-1 cardiomyocytes; format: cell-based, murine; set-up: immortalized adult murine cardiomyocytes (HL-1) cells were used; endogenous in cells; host or cells: HL-1 murine cardiomyocytes; details: LPS/ATP, compound 400 μM
T1 sequence (Q8R4B8 whole entry): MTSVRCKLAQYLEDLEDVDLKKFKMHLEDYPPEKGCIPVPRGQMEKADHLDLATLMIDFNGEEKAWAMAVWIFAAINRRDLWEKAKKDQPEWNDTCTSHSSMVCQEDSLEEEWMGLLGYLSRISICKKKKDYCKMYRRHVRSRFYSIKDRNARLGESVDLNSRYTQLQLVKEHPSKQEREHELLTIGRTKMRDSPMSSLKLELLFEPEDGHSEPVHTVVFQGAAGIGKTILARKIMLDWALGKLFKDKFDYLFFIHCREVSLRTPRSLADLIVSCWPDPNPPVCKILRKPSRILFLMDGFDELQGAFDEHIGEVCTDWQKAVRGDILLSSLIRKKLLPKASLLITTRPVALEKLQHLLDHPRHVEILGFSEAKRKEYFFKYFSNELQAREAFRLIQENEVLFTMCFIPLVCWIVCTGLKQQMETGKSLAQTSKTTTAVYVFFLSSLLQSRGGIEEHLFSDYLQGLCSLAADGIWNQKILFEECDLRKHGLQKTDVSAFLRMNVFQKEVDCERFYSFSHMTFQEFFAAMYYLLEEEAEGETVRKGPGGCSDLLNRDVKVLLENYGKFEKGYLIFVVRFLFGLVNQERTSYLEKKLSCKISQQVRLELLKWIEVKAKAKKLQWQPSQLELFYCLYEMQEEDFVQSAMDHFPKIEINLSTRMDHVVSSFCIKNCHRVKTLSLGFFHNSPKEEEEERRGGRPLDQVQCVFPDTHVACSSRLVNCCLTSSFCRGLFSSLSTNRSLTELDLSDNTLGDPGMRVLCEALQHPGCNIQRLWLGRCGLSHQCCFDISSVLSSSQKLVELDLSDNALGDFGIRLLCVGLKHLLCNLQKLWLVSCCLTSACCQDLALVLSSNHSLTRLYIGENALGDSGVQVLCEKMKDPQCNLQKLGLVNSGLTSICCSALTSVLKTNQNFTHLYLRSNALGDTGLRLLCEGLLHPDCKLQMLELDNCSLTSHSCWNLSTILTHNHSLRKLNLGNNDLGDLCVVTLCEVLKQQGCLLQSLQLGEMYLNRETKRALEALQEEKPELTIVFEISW
Description: In separate experiments, immortalized adult murine cardiomyocytes (HL-1) cells were used. […] Formation of the NLRP3 inflammasome in HL-1 cells was determined and quantified by ASC aggregation (immunohistochemistry), caspase-1 activity (enzymatic activity) and cell death (trypan blue exclusion method), as previously described. […] As readout for the NLRP3 inflammasome activation, caspase-1 enzymatic activity and cell death were evaluated. Briefly, HL-1 cells (2×10^6 cells) were plated in 90-mm dishes and NLRP3 inflammasome formation was induced as described above. After treatments, to measure caspase-1 activity, the cells were washed, harvested, and frozen. The pellet was resuspended using RIPA buffer (Sigma-Aldrich) containing a mixture of protease inhibitors (Sigma-Aldrich) and centrifuged at 16,200×g for 20 min. The supernatants were collected and the protein contents were quantified using the Bradford assay. The caspase-1 activity was determined by measuring the fluorescence produced by the cleavage of a fluorogenic substrate. The fluorescence was reported as arbitrary fluorescence units produced by 1 μg of sample per min (fluorescence/μg/min).

[2] = molecular target: T1, NLRP3 inflammasome; test: Cell death in HL-1 cardiomyocytes (trypan blue exclusion); format: cell-based, murine; set-up: immortalized adult murine cardiomyocytes (HL-1) cells were used; endogenous in cells; host or cells: HL-1 murine cardiomyocytes
[3] = system: healthy mice; test: Toxic effects and glucose levels in healthy control mice
[4] = molecular target: NLRP3 inflammasome (Homo sapiens, UniProt Q96P20); details: literature reports, cited from earlier work
Sequence of NLRP3 inflammasome (Homo sapiens, UniProt Q96P20) (Q96P20 whole entry): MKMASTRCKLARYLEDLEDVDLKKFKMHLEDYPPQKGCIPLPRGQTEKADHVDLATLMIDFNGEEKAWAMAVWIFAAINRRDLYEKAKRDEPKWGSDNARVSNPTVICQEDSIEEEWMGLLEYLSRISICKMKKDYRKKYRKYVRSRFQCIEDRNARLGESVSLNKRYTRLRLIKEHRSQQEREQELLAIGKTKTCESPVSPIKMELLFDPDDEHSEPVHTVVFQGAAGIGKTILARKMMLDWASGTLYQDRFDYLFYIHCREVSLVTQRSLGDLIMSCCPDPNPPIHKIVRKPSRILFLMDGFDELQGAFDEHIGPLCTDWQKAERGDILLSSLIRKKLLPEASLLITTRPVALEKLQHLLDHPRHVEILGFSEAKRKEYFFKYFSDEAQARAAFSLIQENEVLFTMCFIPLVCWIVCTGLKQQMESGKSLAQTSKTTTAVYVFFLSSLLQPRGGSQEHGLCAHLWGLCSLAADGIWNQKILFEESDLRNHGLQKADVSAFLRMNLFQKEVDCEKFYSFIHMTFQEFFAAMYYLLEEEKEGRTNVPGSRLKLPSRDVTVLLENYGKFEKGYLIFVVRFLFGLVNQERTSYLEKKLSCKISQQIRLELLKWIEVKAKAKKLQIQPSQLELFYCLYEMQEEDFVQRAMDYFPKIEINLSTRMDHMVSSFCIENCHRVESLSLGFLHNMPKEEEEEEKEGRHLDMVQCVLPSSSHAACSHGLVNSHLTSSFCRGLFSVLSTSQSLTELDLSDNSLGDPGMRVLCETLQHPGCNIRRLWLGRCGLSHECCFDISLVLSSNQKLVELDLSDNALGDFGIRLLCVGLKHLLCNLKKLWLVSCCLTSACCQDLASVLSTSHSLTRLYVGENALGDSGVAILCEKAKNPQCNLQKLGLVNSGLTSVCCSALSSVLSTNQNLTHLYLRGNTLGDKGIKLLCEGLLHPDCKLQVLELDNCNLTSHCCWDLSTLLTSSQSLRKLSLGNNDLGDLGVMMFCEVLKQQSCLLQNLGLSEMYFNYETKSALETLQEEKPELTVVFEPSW

[5] = system: insulin; details: Lamkanfi et al. 2009; cited from earlier work
[6] = molecular target: T1, NLRP3 inflammasome; test: Acute myocardial infarction, single i.p. dose at reperfusion, infarct size (TTC); format: in vivo; set-up: from tissue; host or cells: live mice: heart (infarction and doxorubicin models) and peritoneal cavity (zymosan A); details: experiment with G1; 100 mg/kg i.p. at reperfusion; 24 hours; vs vehicle
Description: Experimental AMI was induced in mice by transient myocardial ischemia for 30 min followed by 24 hours of reperfusion. […] The heart were explanted at 24 hours and processed for the measurement of infarct size using triphenyl tetrazolium chloride (TTC staining). The areas of infarcted tissue, the risk zone, and the whole LV areas are determined by computer morphometry using Image Pro® Plus 6.0 software (Media Cybernetics, Silver Spring, Md.).
As described above, experimental AMI was induced by transient myocardial ischemia for 30 min followed by 24 hours of reperfusion.

For `COc1ccc(Cl)cc1C(=O)NCCc1ccccc1` [Compound 6 in FIG. 3, 5-chloro-2-methoxy-N-(2-phenylethyl)-benzamide], the caspase-1 activity [1] was “failed to inhibit”, the caspase-1 activity ([1]; listed as intermediate compound) was “no inhibitory effects” and the cell death [2] was “failed”. The cell death ([2]; HL-1, LPS/ATP, compound 400 μM) was “no inhibitory effects”.

For `COc1ccc(Cl)cc1C(=O)NCCc1ccc(S(=O)(=O)NC(=O)NC2CCCCC2)cc1` [glyburide], the “lethal within 3 days, share of mice” value ([3]; 100 mg/kg every 6 hours for 3 doses) was 50%, the “glucose levels 2 hours after a single dose” value ([3]; 16673-34-0 100 mg/kg, (equimolar)) was “significant reduction” and the “lethal in 3 days, share of mice” value ([3]; daily doses of 500 mg/kg) was 100%. The “mortality in healthy mice” value ([3]; every 6 hours for 24 hours, 16673-34-0 100 mg/kg) was 50% and the plasma glucose levels ([3]; healthy mice, single and repeated injections, glyburide effect as early as 2 hours) was “significant reduction”.

In the case of `COc1ccc(Cl)cc1C(=O)NCCc1ccc(S(=O)(=O)Cl)cc1` [Compound G1, 4-(2-[(5-chloro-2-methoxyphenyl)formamido]ethyl)benzene-1-sulfonyl chloride], the “inhibition of cryopyrin / NLRP3 inflammasome in vitro” value [4] is given as “inhibited”, the “inhibition of cryopyrin / NLRP3 inflammasome in vitro” value ([4]; listed as compound 1) is given as “retain some of the anti-inflammatory activity of glyburide” and the effect on insulin [5] is given as “no effect”. The “infarct size (% area at risk)” value [6] was “no effect”.
